Results on 14 compounds are retold here after patent EP4563573A1, “COMPOUND, AND PREPARATION METHOD THEREFOR AND USE THEREOF IN PREPARATION OF SEH INHIBITOR AND PPARS AGONIST” (Shenyang Pharmaceutical University, priority 2023, dated 2024).

Where two headings read alike, the source gives them in different places.

The target in one data set is T1, PPARγ (Homo sapiens, UniProt P37231).
T1 sequence (P37231 204-505): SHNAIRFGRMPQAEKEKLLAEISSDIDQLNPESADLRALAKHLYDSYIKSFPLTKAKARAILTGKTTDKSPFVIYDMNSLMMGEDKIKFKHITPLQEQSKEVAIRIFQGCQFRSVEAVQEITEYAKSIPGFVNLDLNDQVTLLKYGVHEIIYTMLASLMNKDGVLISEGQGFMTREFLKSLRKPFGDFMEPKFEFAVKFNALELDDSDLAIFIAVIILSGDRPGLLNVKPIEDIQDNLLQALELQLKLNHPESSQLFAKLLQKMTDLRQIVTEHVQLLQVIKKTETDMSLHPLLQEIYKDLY
In words: PPARγ agonist activity test (luciferase reporter gene). It is filed as cell-based. Particulars: for PPARγ (compared with Rosiglitazone, %): relative to Rosiglitazone. The source says:
• 1. PPARγ agonist activity test Detection principle: when pM-hPPAR binds to the appropriate ligand, and is activated and binds to the GAL4DNA binding site in the plasmid pB4-RES-tk-luc, thereby initiating the expression of the downstream luciferase reporter gene. The amount of luciferase is detected to determine whether the compound to be tested is a PPAR agonist. • 2.

Data set [1] has as its target T2, murine sEH (MsEH) (Mus musculus, UniProt P34914).
T2 sequence (P34914 1-554): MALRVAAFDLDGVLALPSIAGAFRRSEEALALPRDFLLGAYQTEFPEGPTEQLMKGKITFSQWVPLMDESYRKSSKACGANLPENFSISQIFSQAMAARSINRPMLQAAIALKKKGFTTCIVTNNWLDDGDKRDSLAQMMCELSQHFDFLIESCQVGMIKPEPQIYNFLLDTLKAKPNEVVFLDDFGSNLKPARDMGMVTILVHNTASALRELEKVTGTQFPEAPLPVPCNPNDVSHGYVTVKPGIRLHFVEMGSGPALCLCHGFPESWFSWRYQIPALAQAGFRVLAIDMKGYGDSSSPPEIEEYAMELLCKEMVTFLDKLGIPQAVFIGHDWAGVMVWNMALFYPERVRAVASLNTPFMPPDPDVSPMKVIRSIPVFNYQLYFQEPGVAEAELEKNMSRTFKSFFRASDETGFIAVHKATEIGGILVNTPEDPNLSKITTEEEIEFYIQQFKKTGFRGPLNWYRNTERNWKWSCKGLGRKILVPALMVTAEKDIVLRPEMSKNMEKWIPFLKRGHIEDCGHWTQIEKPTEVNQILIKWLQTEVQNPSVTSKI
The experiment in a line: biochemical.
Procedure: (§1) Detection principle: a specific substrate, (3-phenyl-oxy)-acetic acid cyano-(6-methoxy-naphthalen-2-yl) methyl ester, namely PHOME, is non-fluorescent but can be hydrolyzed under the action of sEH enzyme to generate a product 6-methoxy-2-naphthaldehyde. […] Based on the above principle, the inhibition rates of samples with different concentrations were calculated compared with the positive control group. The IC50 value of the compound was calculated based on the inhibition rate and concentration using SPSS 20 software.
(§2) PHOME solution: 0.79 mg PHOME was dissolved in 106 µL DMSO to obtain a 20 mM PHOME solution, which was diluted to 1/3 mM with Tris-HCl buffer when used.
(§3) sEH solution: sEH (5 mg/mL) stock solution was stored in a -80°C refrigerator and diluted to 4 µg/mL with 25 mM Tris-HCl buffer when used.
(§4) A sample powder to be tested was dissolved in DMSO to a 20 mM solution, stored in a - 20°C refrigerator for later use, and diluted with Tris-HCl buffer to the corresponding concentration when used.
(§5) Experimental design: solvent group, 100% activity group (A), inhibitor group (B), positive control group (C), as shown in Table 1.
(§6) Three replicate wells were set for each sample, and the average of the three replicate wells was the fluorescence value (F) of the compound to be tested. […] The IC50 value of the compound was calculated based on the inhibition rate and concentration using SPSS 20 software.
(§7) The activity of the compounds was evaluated using a biochemical method with [cyano-(6-methoxynaphthalen-2-yl)methyl] 2-(3-phenyloxiran-2-yl)acetate (PHOME) as a substrate using recombinant human sEH (HsEH) and murine sEH (MsEH).

Data set [2] deals with T3, recombinant human sEH (HsEH) (Homo sapiens, UniProt P34913).
T3 sequence (P34913 1-555): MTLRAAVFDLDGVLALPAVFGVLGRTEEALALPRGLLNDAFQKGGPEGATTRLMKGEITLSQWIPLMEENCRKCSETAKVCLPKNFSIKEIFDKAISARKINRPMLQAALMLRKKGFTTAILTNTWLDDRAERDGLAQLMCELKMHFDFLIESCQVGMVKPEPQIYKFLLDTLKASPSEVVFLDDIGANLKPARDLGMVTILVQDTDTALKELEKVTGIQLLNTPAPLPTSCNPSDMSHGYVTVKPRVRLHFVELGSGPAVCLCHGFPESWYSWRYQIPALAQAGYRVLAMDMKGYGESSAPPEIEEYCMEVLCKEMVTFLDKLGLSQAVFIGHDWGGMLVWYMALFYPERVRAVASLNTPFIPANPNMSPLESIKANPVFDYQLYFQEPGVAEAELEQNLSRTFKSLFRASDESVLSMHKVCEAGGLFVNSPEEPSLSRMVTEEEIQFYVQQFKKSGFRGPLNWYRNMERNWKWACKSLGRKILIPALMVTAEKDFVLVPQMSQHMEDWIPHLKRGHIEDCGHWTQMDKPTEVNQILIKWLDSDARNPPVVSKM
Procedure: as §1, §2, §3, §4, §5, §6, §7

Data set [3] addresses T2, murine sEH (MsEH). The settings on record: read-out: MsEH IC50, PHOME substrate.
Procedure: as §1, §2, §3, §4, §5, §6, §7
Data set [4] can be described thus: Pharmacokinetics after intravenous and oral administration. Particulars: rats, i.v. 10 mg/kg. The procedure: Blood levels were measured within 8 hours after oral administration. […] Table 7 PK of SP-B07 after intravenous and oral administration in rats (n=3)
Where [5] appears, read: read-out: HsEH IC50, recombinant human sEH, PHOME substrate.

Consider `CC12CC3CC(C)(C1)CC(NC(=O)N[C@H]1CC[C@H](Oc4ccc(CC5SC(=O)NC5=O)cc4)CC1)(C3)C2` (some centres unmarked) [SP-A01], for which, on PPARγ, a half-maximal response (EC50) required 6770 nM and the “PPARγ (compared with Rosiglitazone, %)” value was 34.5%. In addition, at murine sEH (MsEH) [1], the IC50 amounted to 0.54 nM. In data set [2], the IC50 stood at 0.55 nM.

For `CC12CC3CC(C)(C1)CC(NC(=O)N1CCC(Oc4ccc(CC5SC(=O)NC5=O)cc4)CC1)(C3)C2` (centres unmarked) [SP-A02], the “PPARγ (compared with Rosiglitazone, %)” value at PPARγ is 25.2%. Moreover, the IC50 against murine sEH (MsEH) [1] was 8.3 nM; in data set [2] it was 83.5 nM.

For the compound `O=C1NC(=O)C(Cc2ccc(OC3CCN(C(=O)Nc4ccc(OC(F)(F)F)cc4)CC3)cc2)S1` (centres unmarked) [SP-A05], the “PPARγ (compared with Rosiglitazone, %)” value at PPARγ stood at 14.3%. Besides, the values for the IC50 (at murine sEH (MsEH) [3]; in data set [2] (setting [5])) were 0.43 nM and 0.53 nM, respectively.

Turning to `O=C1NC(=O)C(Cc2ccc(OC3CCN(C(=O)Nc4ccc(OC(F)(F)F)c(F)c4)CC3)cc2)S1` (centres unmarked) [SP-A06], the “PPARγ (compared with Rosiglitazone, %)” value on PPARγ was 28.4%. Further, the IC50 amounted to 0.73 nM on murine sEH (MsEH) [3] and 1.3 nM in data set [2] (setting [5]).

At PPARγ, `O=C(Nc1ccc(OC(F)(F)F)c(F)c1)N[C@H]1CC[C@H](Oc2ccc(CC3SC(=O)NC3=O)cc2)CC1` (some centres unmarked) [SP-A07] displayed an EC50 of 7750 nM. For the same compound, at PPARγ, the “PPARγ (compared with Rosiglitazone, %)” value is 21.1%. Further, the IC50 against murine sEH (MsEH) [1] was determined as 0.67 nM; in data set [2], 0.07 nM.

For the compound `CC12CC3CC(C)(C1)CC(NC(=O)N1CCC(Oc4ccc(/C=C5\SC(=O)NC5=O)cc4)CC1)(C3)C2` [SP-B02], the “PPARγ (compared with Rosiglitazone, %)” value on PPARγ stood at 14.6%. Besides, the IC50 against murine sEH (MsEH) [1] was 23.4 nM; in data set [2] it was 19.9 nM.

Take `CC12CC3CC(C)(C1)CC(NC(=O)N1CCC(Oc4ccc(/C=C5\NC(=O)NC5=O)cc4)CC1)(C3)C2` [SP-B03, N-[(1r,3R,5S,7r)-3,5-dimethyladamantan-1-yl]-4-{4-[(Z)-(2,5-dioxyimidazolin-4-ylidene)methyl]phenoxy}piperidin-1-carboxamide]: the “PPARγ (compared with Rosiglitazone, %)” value at PPARγ worked out at 10.2%. The 50% inhibitory concentration (IC50) against murine sEH (MsEH) [1] worked out at 135 nM; in data set [2], 121 nM.

As to `O=C1NC(=O)/C(=C/c2ccc(OC3CCN(C(=O)Nc4ccc(OC(F)(F)F)cc4)CC3)cc2)N1` [SP-B04], at PPARγ, the “PPARγ (compared with Rosiglitazone, %)” value turned out to be 9.6%. For the same compound, the IC50 against murine sEH (MsEH) [1] was 108 nM; in data set [2], 156 nM.

`O=C1NC(=O)/C(=C/c2ccc(OC3CCN(C(=O)Nc4ccc(OC(F)(F)F)cc4)CC3)cc2)S1` [SP-B05, (Z)-4-{4-[(2,4-dioxothiazolidin-5-ylidene)methyl]phenoxy}-N-[4-(trifluoromethoxy)phenyl]piperidin-1-carboxamide]: the “PPARγ (compared with Rosiglitazone, %)” value at PPARγ amounted to 17.3%.

For `O=C(Nc1ccc(OC(F)(F)F)c(F)c1)N[C@H]1CC[C@H](Oc2ccc(/C=C3\SC(=O)NC3=O)cc2)CC1` [SP-B06], the “PPARγ (compared with Rosiglitazone, %)” value at PPARγ amounted to 19.3%. The IC50 against murine sEH (MsEH) [1] worked out at 1.1 nM; in data set [2], 0.69 nM.

Take `CC(=O)Oc1ccc(O[C@H]2CC[C@H](NC(=O)Nc3ccc(OC(F)(F)F)c(F)c3)CC2)cc1` [SP-C01, phenyl 4-(((1r,4r)-4-(3-(3-fluoro-4-(trifluoromethoxy)phenyl)ureido)cyclohexyl)oxy)acetate]: the “time at which maximum concentration was reached after intravenous injection” value in data set [4] is on record as 2 min.

For `NC(=O)c1ccc(O[C@H]2CC[C@H](NC(=O)Nc3ccc(OC(F)(F)F)cc3)CC2)cc1` [SP-C01i], the “PPARγ (compared with Rosiglitazone, %)” value on PPARγ worked out at 12.97%. Further, the IC50 worked out at 0.7 nM against murine sEH (MsEH) [1] and 0.3 nM in data set [2].

On to `CC(=O)Nc1ccc(O[C@H]2CC[C@H](NC(=O)Nc3ccc(OC(F)(F)F)c(F)c3)CC2)cc1` [SP-C01k, N-(4-(((1r,4r)-4-(3-(3-fluoro-4-(trifluoromethoxy)phenyl)ureido)cyclohexyl)oxy)phenyl)acetamide], for which the “PPARγ (compared with Rosiglitazone, %)” value on PPARγ is 0.3%.

Consider `CCOC(=O)CC(=O)Nc1ccc(O[C@H]2CC[C@H](NC(=O)Nc3ccc(OC(F)(F)F)c(F)c3)CC2)cc1` [SP-C01s], for which, on PPARγ, the “PPARγ (compared with Rosiglitazone, %)” value is reported as 0.3%. Moreover, the IC50 on murine sEH (MsEH) [1] is 0.6 nM; in data set [2], 0.3 nM.
